From patent publication US20070213339A1 (Bayer Pharmaceuticals Corporation, priority 2004, published 2007) come the findings set out here.

In the experiment the test system is Colo205 human colon carcinoma cell line. As to the kind of experiment: In vitro tumor cell proliferation assay (MTS, CellTiter 96 Aqueous One Solution). Type of experiment: cell-based. The conditions noted are these: COLO 205, Colo205 cells, 72 hours compound exposure, MTS absorbance at 490 nm, read-out: IC50 (concentration of test compound required to inhibit proliferation of 50% of the cells). The method in brief: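 Proliferation measured as MTS tetrazolium reduction (490 nm) after 72 h compound exposure at 37 °C. Cells plated at 2000 per well in serum-supplemented RPMI-1640; duplicate 5-point dilutions topping out at 10-20 μM. Percent inhibition versus untreated and cell-free wells, IC50 derived by linear regression.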
Turning to `C[C@H]1CCCCN1Cc1ccc(-n2cc(C(=O)O)c(=O)c3cc(F)c(N4CCN(c5ncccn5)CC4)c(OC(F)(F)F)c32)cc1` [Example 139, 6-fluoro-1-(4-{[(2S)-2-methylpiperidin-1-yl]methyl}phenyl)-4-oxo-7-(4-pyrimidin-2-ylpiperazin-1-yl)-8-(trifluoromethoxy)-1,4-dihydroquinoline-3-carboxylic acid], the IC50 is less than 500 nM.

As for `Cc1cccc(N2CCN(c3c(F)cc4c(=O)c(C(=O)O)cn(-c5ccc(CN6CCCC6)cc5F)c4c3Cl)CC2)n1` [Example 175, 8-chloro-6-fluoro-1-(2-fluoro-4-pyrrolidin-1-ylmethyl-phenyl)-7-[4-(6-methylpyridine-2-yl)-piperazine-1-yl]-4-oxo-1,4-dihydroquinoline-3-carboxylic acid], the IC50 was less than 500 nM.

Regarding `CC1CCCN1Cc1ccc(-n2cc(C(=O)O)c(=O)c3cc(F)c(N4CCN(c5ccc(F)cc5)CC4)c(Cl)c32)cc1` (stereo not shown) [Example 18, 8-chloro-6-fluoro-7-[4-(4-fluorophenyl)-piperazin-1-yl]-1-{4-[(2-methylpyrrolidin-1-yl)methyl]phenyl}-4-oxo-1,4-dihydroquinoline-3-carboxylic acid], the IC50 is less than 500 nM.

On to `COc1c(N2CCN(c3ccccc3F)CC2)c(F)cc2c(=O)c(C(=O)O)cn(-c3ccc(CN4CCCC4)cc3)c12` [Example 75, 6-fluoro-7-[4-(2-fluorophenyl)piperazin-1-yl]-8-methoxy-4-oxo-1-[4-(pyrrolidin-1-ylmethyl)phenyl]-1,4-dihydroquinoline-3-carboxylic acid], for which the IC50 lay in the range of 500 to 2000 nM.

Consider `CN(C)Cc1ccc(-n2cc(C(=O)O)c(=O)c3cc(F)c(N4CCN(c5ncccn5)CC4)c(OC(F)(F)Cl)c32)cc1` [Example 157, 8-[chloro(difluoro)methoxy]-1-{4-[(dimethylamino)methyl]phenyl}-6-fluoro-4-oxo-7-(4-pyrimidin-2-ylpiperazin-1-yl)-1,4-dihydroquinoline-3-carboxylic acid], for which the IC50 was in the range of 500 to 2000 nM.

As to `CN(C)Cc1ccc(-n2cc(C(=O)O)c(=O)c3cc(F)c(N4CCN(c5ccccn5)CC4)c(OC(F)(F)F)c32)cc1` [Example 126, 1-{4-[(dimethylamino)methyl]phenyl}-6-fluoro-4-oxo-7-(4-pyridin-2-ylpiperazin-1-yl)-8-(trifluoromethoxy)-1,4-dihydroquinoline-3-carboxylic acid], the IC50 was less than 500 nM.

For `CCN(CC)Cc1ccc(-n2cc(C(=O)O)c(=O)c3cc(F)c(N4CCN(c5ccccn5)CC4)c(OC(F)(F)F)c32)cc1` [Example 132, 1-{4-[(diethylamino)methyl]phenyl}-6-fluoro-4-oxo-7-(4-pyridin-2-ylpiperazin-1-yl)-8-(trifluoromethoxy)-1,4-dihydroquinoline-3-carboxylic acid], the IC50 is less than 500 nM.

As for `CCN(CC)Cc1ccc(-n2cc(C(=O)O)c(=O)c3cc(F)c(N4CCN(c5ccc(F)cc5F)CC4)c(OC)c32)cc1` [Example 111, 1-{4-[(diethylamino)methyl]phenyl}-7-[4-(2,4-difluorophenyl)piperazin-1-yl]-6-fluoro-8-methoxy-4-oxo-1,4-dihydroquinoline-3-carboxylic acid], the IC50 is 500 to 2000 nM.

For the compound `NC(=O)c1cccnc1N1CCN(c2c(F)cc3c(=O)c(C(=O)O)cn(-c4ccc(CN5CCCC5)cc4)c3c2Cl)CC1` [Example 9, 7-{4-[3-(aminocarbonyl)pyridin-2-yl]piperazin-1-yl}-8-chloro-6-fluoro-4-oxo-1-[4-(pyrrolidin-1-ylmethyl)phenyl]-1,4-dihydroquinoline-3-carboxylic acid], the IC50 was in the range of 500 to 2000 nM.

For `N#Cc1cccnc1N1CCN(c2c(F)cc3c(=O)c(C(=O)O)cn(-c4ccc(CN5CCCC5)cc4F)c3c2Cl)CC1` [Example 45, 8-chloro-7-[4-(3-cyanopyridin-2-yl)piperazin-1-yl]-6-fluoro-1-[2-fluoro-4-(pyrrolidin-1-ylmethyl)phenyl]-4-oxo-1,4-dihydroquinoline-3-carboxylic acid], the IC50 was less than 500 nM.

In the case of `O=C(O)c1cn(-c2cccc(CN3CCCCC3)c2)c2c(Cl)c(N3CCN(c4ccccn4)CC3)c(F)cc2c1=O` [Example 65, 8-chloro-6-fluoro-4-oxo-1-[3-(piperidin-1-yl-methyl)phenyl]-7-(4-pyridin-2-ylpiperazin-1-yl)-1,4-dihydroquinoline-3-carboxylic acid], the IC50 lay within 2000 to 20000 nM.

On to `O=C(O)c1cn(-c2ccc(CN3CC[C@@H](O)C3)cc2)c2c(Cl)c(N3CCN(c4ccc(F)cc4)CC3)c(F)cc2c1=O` [Example 31, 8-chloro-6-fluoro-7-[4-(4-fluorophenyl)-piperazin-1-yl]-1-(4-{[(3R)-3-hydroxypyrrolidin-1-yl]methyl}phenyl)-4-oxo-1,4-dihydroquinoline-3-carboxylic acid], for which the IC50 was less than 500 nM.

As to `CCN(CC)Cc1ccc(-n2cc(C(=O)O)c(=O)c3cc(F)c(N4CCN(c5ccccc5)CC4)c(OC(F)(F)F)c32)cc1` [Example 138, 1-{4-[(diethylamino)methyl]phenyl}-6-fluoro-4-oxo-7-(4-phenylpiperazin-1-yl)-8-(trifluoromethoxy)-1,4-dihydroquinoline-3-carboxylic acid], the IC50 is less than 500 nM.

With `COc1c(N2CCN(c3cccc(F)c3)CC2)c(F)cc2c(=O)c(C(=O)O)cn(-c3ccc(CN4CCCC4)cc3)c12` [Example 85, 6-fluoro-7-[4-(3-fluorophenyl)piperazin-1-yl]-8-methoxy-4-oxo-1-[4-(pyrrolidin-1-ylmethyl)phenyl]-1,4-dihydroquinoline-3-carboxylic acid], the IC50 is less than 500 nM.

With `O=C(O)c1cn(-c2ccc(CNC3CCC[C@@H]3O)cc2)c2c(Cl)c(N3CCN(c4ccccn4)CC3)c(F)cc2c1=O` (stereo in doubt) [Example 172, 8-chloro-6-fluoro-1{4-[(2-hydroxycyclopentylamino)-methyl]-phenyl}-4-oxo-7-(4-pyridin-2-yl-piperazine-1-yl)-1,4-dihydro-quinoline-3-carboxylic acid], the IC50 is less than 500 nM.

For the compound `CCN(CC)Cc1ccc(-n2cc(C(=O)O)c(=O)c3cc(F)c(N4CCN(c5ccc(C#N)cc5)CC4)c(OC)c32)cc1` [Example 108, 7-[4-(4-cyanophenyl)piperazin-1-yl]-1-{4-[(diethylamino)methyl]phenyl}-6-fluoro-8-methoxy-4-oxo-1,4-dihydroquinoline-3-carboxylic acid], the IC50 was less than 500 nM.

For the compound `N#Cc1cc(C(F)(F)F)ccc1N1CCN(c2c(F)cc3c(=O)c(C(=O)O)cn(-c4ccc(CN5CCCC5)cc4)c3c2Cl)CC1` [Example 5, 8-chloro-7-{4-[2-cyano-4-(trifluoromethyl)-phenyl]piperazin-1-yl}-6-fluoro-4-oxo-1-[4 (pyrrolidin-1-ylmethyl)phenyl]-1,4-dihydroquinoline-3-carboxylic acid], the IC50 fell in the range of 500 to 2000 nM.

Consider `CON(C)Cc1ccc(-n2cc(C(=O)O)c(=O)c3cc(F)c(N4CCN(c5ncccc5C#N)CC4)c(Cl)c32)cc1` [Example 54, 8-chloro-7-[4-(3-cyanopyridin-2-yl)piperazin-1-yl]-6-fluoro-1-(4-{[methoxy(methyl)amino]methyl}phenyl)-4-oxo-1,4-dihydroquinoline-3-carboxylic acid], for which the IC50 lay within 2000 to 20000 nM.

On to `O=C(O)c1cn(-c2cccc(CN3CCCCC3)c2)c2c(OC(F)(F)F)c(N3CCN(c4ccccn4)CC3)c(F)cc2c1=O` [Example 140, 6-fluoro-4-oxo-1-[3-(piperidin-1-yl-methyl)phenyl]-7-(4-pyridin-2-ylpiperazin-1-yl)-8-(trifluoromethoxy)-1,4-dihydroquinoline-3-carboxylic acid], for which the IC50 is 500 to 2000 nM.

Take `O=C(O)c1cn(-c2ccc(CN3CCCC3)cc2)c2c(Cl)c(N3CCN(c4ccc(F)cc4F)CC3)c(F)cc2c1=O` [Example 8, 8-chloro-7-[4-(2,4-difluorophenyl)piperazin-1-yl]-6-fluoro-4-oxo-1-[4-(pyrrolidin-1-ylmethyl)phenyl]-1,4-dihydroquinoline-3-carboxylic acid]: the IC50 lay in the range of 500 to 2000 nM.

Take `CN(C)Cc1ccc(-n2cc(C(=O)O)c(=O)c3cc(F)c(N4CCN(c5ccc(F)cc5)CC4)c(OC(F)(F)Cl)c32)cc1` [Example 155, 8-[chloro(difluoro)methoxy]-1-{4-[(dimethylamino)methyl]phenyl}-6-fluoro-7-[4-(4-fluorophenyl)piperazin-1-yl]-4-oxo-1,4-dihydroquinoline-3-carboxylic acid]: the IC50 is less than 500 nM.

For `O=C(O)c1cn(-c2ccc(CN3CCCC3)cc2F)c2c(Cl)c(N3CCN(c4ccc(Cl)cc4)CC3)c(F)cc2c1=O` [Example 42, 8-chloro-7-[4-(4-chlorophenyl)piperazin-1-yl]-6-fluoro-1-[2-fluoro-4-(pyrrolidin-1-ylmethyl)phenyl]-4-oxo-1,4-dihydroquinoline-3-carboxylic acid], the IC50 is less than 500 nM.

In the case of `COc1c(N2CCN(c3ccc(C#N)cc3)CC2)c(F)cc2c(=O)c(C(=O)O)cn(-c3ccc(CN4CCCCC4)cc3)c12` [Example 192, 7-[4-(4-cyanophenyl)-piperazine-1-yl]-6-fluoro-8-methoxy-4-oxo-1-(4-piperidin-1-ylmethyl-phenyl)-1,4-dihydroquinoline-3-carboxylic acid], the IC50 was less than 500 nM.

With `O=C(O)c1cn(-c2ccc(CNC3CCCCC3)cc2)c2c(Cl)c(N3CCN(c4ncccn4)CC3)c(F)cc2c1=O` [Example 189, 8-chloro-1-(4-cyclohexylaminomethyl-phenyl)-6-fluoro-4-oxo-7-(4-pyrimidin-2-yl-piperazin-1-yl)-1,4-dihydroquinoline-3-carboxylic acid], the IC50 is less than 500 nM.

For `COc1c(N2CCN(c3ccc(C(C)=O)cc3)CC2)c(F)cc2c(=O)c(C(=O)O)cn(-c3ccc(CN(C)C)cc3)c12` [Example 103, 7-[4-(4-acetylphenyl)piperazin-1-yl]-1-{4-[(dimethylamino)methyl]phenyl}-6-fluoro-8-methoxy-4-oxo-1,4-dihydroquinoline-3-carboxylic acid], the IC50 was in the range of 500 to 2000 nM.
